Structures are written as SMILES.

The test system of the first assay is 30145 (donor line of iPSC-derived cardiomyocytes). Put plainly: POD (EC05) for decrease in beat frequency (negative chronotrope) vs vehicle; higher = less potent (higher point of departure). The note with it: exposure time: 90 min. As for the experimental part: (§1)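 Human iPSC-derived cardiomyocytes from 16 donors were exposed for 90 min at 37 °C to each PFAS at 0.1, 1, 10 and 100 µM in 0.5% DMSO, 384-well plates. Kinetic Ca2+ flux (FLIPR) and Hoechst nuclei counts were normalised to vehicle wells and fitted with a hierarchical Bayesian Hill model to give donor-specific PODs: EC05 for beat-rate increase or decrease and for decay-to-rise ratio increase (QT proxy), EC95 for peak-frequency loss (asystole), EC10 for total cell number loss. 0.03 µM is the lower bound.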
`CN(CCO)S(=O)(=O)C(F)(F)C(F)(F)C(F)(F)C(F)(F)C(F)(F)C(F)(F)C(F)(F)C(F)(F)F` [N-Methyl-N-(2-hydroxyethyl)perfluorooctanesulfonamide] gave a POD vs vehicle above 100 µM.

`NC(=O)C(F)(F)C(F)(F)C(F)(F)C(F)(F)C(F)(F)C(F)(F)C(F)(F)F` [Perfluorooctanamide] registered a POD vs vehicle above 100 µM.

With `N=C(N)C(F)(F)C(F)(F)C(F)(F)C(F)(F)C(F)(F)C(F)(F)C(F)(F)F` [Perfluorooctanamidine], the POD vs vehicle was above 100 µM.

The subject of the next assay is 1118 (donor line of iPSC-derived cardiomyocytes). Described as above. The note with it: exposure time: 90 min. As for the experimental part:
as §1
Consider `NC(=O)C(F)(F)C(F)(F)C(F)(F)C(F)F`, for which the POD vs vehicle is above 100 µM.

In the case of `OCC(O)CC(F)(F)C(F)(F)C(F)(F)C(F)(F)C(F)(F)C(F)(F)C(F)(F)C(F)(F)F` (centres undefined) [1-(Perfluorofluorooctyl)propane-2,3-diol], the POD vs vehicle is 0.258 µM.

Take `CC(O)C(F)(F)C(F)(F)F` (centres undefined) [1-Pentafluoroethylethanol]: the POD vs vehicle is above 100 µM.

As to `OCC(F)(F)C(F)(F)C(F)(F)C(F)F` [1H,1H,5H-Perfluoropentanol], the POD vs vehicle was found to be 22.8 µM.

`O=S(=O)(OCC(F)(F)F)C(F)(F)C(F)(F)C(F)(F)C(F)(F)F` [2,2,2-Trifluoroethyl_perfluorobutanesulfonate] registered a POD vs vehicle above 100 µM.

In turn, `O=C(O)C(F)(F)C(F)(F)C(F)F` [2,2,3,3,4,4-Hexafluorobutanoic_acid] displayed a POD vs vehicle above 100 µM.

Compound `NC(O)(C(F)(F)F)C(F)(F)F` [2-Aminohexafluoropropan-2-ol] registered a POD vs vehicle of 16.9 µM.

Regarding `O=C(O)CCC(F)(F)C(F)(F)C(F)(F)C(F)(F)C(F)(F)F` [2H,2H,3H,3H-Perfluorooctanoic_acid], the POD vs vehicle turned out to be 20 µM.

Compound `O=C(O)C=C(C(F)(F)F)C(F)(F)F` [3,3-Bis(trifluoromethyl)-2-propenoic_acid] came in with a POD vs vehicle above 100 µM.

`O=C(O)C=CC(F)(C(F)(F)F)C(F)(F)F` [3-(Perfluoroisopropyl)-2-propenoic_acid]: the POD vs vehicle was above 100 µM.

In turn, `O=C(O)CCC(F)(F)C(F)(F)C(F)(F)C(F)(F)C(F)(F)C(F)(F)C(F)(F)F` [3-Perfluoroheptylpropanoic_acid] had a POD vs vehicle of 13.8 µM.

Compound `O=C(O)CCC(F)(F)C(F)(F)C(F)(F)F` [3:3 Fluorotelomer carboxylic acid] came in with a POD vs vehicle above 100 µM.

The compound `O=C(CC(=O)C(F)(F)C(F)(F)F)C(F)(F)F` [3H,3H-Perfluoro-2,4-hexanedione] showed a POD vs vehicle of 24.6 µM.

In turn, `OCCC(F)(F)C(F)(F)C(F)(F)C(F)(F)F` [4:2 Fluorotelomer alcohol] yielded a POD vs vehicle of 22.9 µM.

The compound `O=S(=O)(O)CCC(F)(F)C(F)(F)C(F)(F)C(F)(F)F` [4:2 Fluorotelomer sulfonic acid] registered a POD vs vehicle above 100 µM.

On to `OCC(F)(F)C(F)(F)C(F)(F)C(F)(F)C(F)(F)C(F)(F)F` [6:1 Fluorotelomer alcohol], for which the POD vs vehicle stood at 0.554 µM.

On to `NC(=O)C(F)(F)C(F)(F)C(F)(F)F` [Heptafluorobutyramide], for which the POD vs vehicle is above 100 µM.

For the compound `NC(=O)C(F)(F)C(F)(F)C(F)(F)C(F)(F)C(F)(F)C(F)(F)C(F)(F)F` [Perfluorooctanamide], the POD vs vehicle was above 100 µM.

`N=C(N)C(F)(F)C(F)(F)C(F)(F)C(F)(F)C(F)(F)C(F)(F)C(F)(F)F` [Perfluorooctanamidine] came in with a POD vs vehicle of 0.128 µM.

For a further assay, the system named is 1083 (donor line of iPSC-derived cardiomyocytes). Put plainly: POD (EC05) for increase in Ca2+ transient decay-to-rise ratio (QT prolongation) vs vehicle; higher = less potent (higher point of departure). The note with it: exposure time: 90 min. The essentials: (§2)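 Ca2+ flux in human iPSC-derived cardiomyocytes from 16 donors was recorded on a FLIPR Tetra for 100 s before and after a 90 min exposure at 37 °C to 0.1, 1, 10 and 100 µM (final, 0.5% DMSO). Donor-specific points of departure came from hierarchical Bayesian Hill fits to vehicle-normalised beat frequency, decay-to-rise ratio or peak frequency. A 5% change served as threshold, except for peak frequency, where it was a 95% loss.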
Consider `NC(=O)C(F)(F)C(F)(F)C(F)(F)C(F)F`, for which the POD vs vehicle is above 100 µM.

With `OCC(O)CC(F)(F)C(F)(F)C(F)(F)C(F)(F)C(F)(F)C(F)(F)C(F)(F)C(F)(F)F` (centres undefined) [1-(Perfluorofluorooctyl)propane-2,3-diol], the POD vs vehicle was above 100 µM.

For `CC(O)C(F)(F)C(F)(F)F` (centres undefined) [1-Pentafluoroethylethanol], the POD vs vehicle was above 100 µM.

Consider `OCC(F)(F)C(F)(F)C(F)(F)C(F)F` [1H,1H,5H-Perfluoropentanol], for which the POD vs vehicle is above 100 µM.

Consider `O=S(=O)(OCC(F)(F)F)C(F)(F)C(F)(F)C(F)(F)C(F)(F)F` [2,2,2-Trifluoroethyl_perfluorobutanesulfonate], for which the POD vs vehicle is above 100 µM.

As to `O=C(O)C(F)(F)C(F)(F)C(F)F` [2,2,3,3,4,4-Hexafluorobutanoic_acid], the POD vs vehicle is above 100 µM.

On to `NC(O)(C(F)(F)F)C(F)(F)F` [2-Aminohexafluoropropan-2-ol], for which the POD vs vehicle is above 100 µM.

On to `O=C(O)CCC(F)(F)C(F)(F)C(F)(F)C(F)(F)C(F)(F)F` [2H,2H,3H,3H-Perfluorooctanoic_acid], for which the POD vs vehicle is above 100 µM.

Consider `O=C(O)C=C(C(F)(F)F)C(F)(F)F` [3,3-Bis(trifluoromethyl)-2-propenoic_acid], for which the POD vs vehicle was above 100 µM.

For `O=C(O)C=CC(F)(C(F)(F)F)C(F)(F)F` [3-(Perfluoroisopropyl)-2-propenoic_acid], the POD vs vehicle is above 100 µM.

As to `O=C(O)CCC(F)(F)C(F)(F)C(F)(F)C(F)(F)C(F)(F)C(F)(F)C(F)(F)F` [3-Perfluoroheptylpropanoic_acid], the POD vs vehicle is above 100 µM.

For the compound `O=C(O)CCC(F)(F)C(F)(F)C(F)(F)F` [3:3 Fluorotelomer carboxylic acid], the POD vs vehicle is above 100 µM.

For `O=C(CC(=O)C(F)(F)C(F)(F)F)C(F)(F)F` [3H,3H-Perfluoro-2,4-hexanedione], the POD vs vehicle is above 100 µM.

Regarding `OCCC(F)(F)C(F)(F)C(F)(F)C(F)(F)F` [4:2 Fluorotelomer alcohol], the POD vs vehicle was above 100 µM.

On to `O=S(=O)(O)CCC(F)(F)C(F)(F)C(F)(F)C(F)(F)F` [4:2 Fluorotelomer sulfonic acid], for which the POD vs vehicle is above 100 µM.

As for `OCC(F)(F)C(F)(F)C(F)(F)C(F)(F)C(F)(F)C(F)(F)F` [6:1 Fluorotelomer alcohol], the POD vs vehicle is above 100 µM.

For `NC(=O)C(F)(F)C(F)(F)C(F)(F)F` [Heptafluorobutyramide], the POD vs vehicle was above 100 µM.

With `CN(CCO)S(=O)(=O)C(F)(F)C(F)(F)C(F)(F)C(F)(F)C(F)(F)C(F)(F)C(F)(F)C(F)(F)F` [N-Methyl-N-(2-hydroxyethyl)perfluorooctanesulfonamide], the POD vs vehicle is above 100 µM.

Take `NC(=O)C(F)(F)C(F)(F)C(F)(F)C(F)(F)C(F)(F)C(F)(F)C(F)(F)F` [Perfluorooctanamide]: the POD vs vehicle is above 100 µM.

For `N=C(N)C(F)(F)C(F)(F)C(F)(F)C(F)(F)C(F)(F)C(F)(F)C(F)(F)F` [Perfluorooctanamidine], the POD vs vehicle was above 100 µM.

A further assay deals with 20084 (donor line of iPSC-derived cardiomyocytes). The assay is described as above. The note with it: exposure time: 90 min. The method, boiled down: as §2
Turning to `NC(=O)C(F)(F)C(F)(F)C(F)(F)C(F)F`, the POD vs vehicle was above 100 µM.

`OCC(O)CC(F)(F)C(F)(F)C(F)(F)C(F)(F)C(F)(F)C(F)(F)C(F)(F)C(F)(F)F` (centres undefined) [1-(Perfluorofluorooctyl)propane-2,3-diol]: the POD vs vehicle is above 100 µM.

For `CC(O)C(F)(F)C(F)(F)F` (centres undefined) [1-Pentafluoroethylethanol], the POD vs vehicle is above 100 µM.

On to `OCC(F)(F)C(F)(F)C(F)(F)C(F)F` [1H,1H,5H-Perfluoropentanol], for which the POD vs vehicle is 5.77 µM.

On to `O=S(=O)(OCC(F)(F)F)C(F)(F)C(F)(F)C(F)(F)C(F)(F)F` [2,2,2-Trifluoroethyl_perfluorobutanesulfonate], for which the POD vs vehicle was above 100 µM.

For `O=C(O)C(F)(F)C(F)(F)C(F)F` [2,2,3,3,4,4-Hexafluorobutanoic_acid], the POD vs vehicle is above 100 µM.

With `NC(O)(C(F)(F)F)C(F)(F)F` [2-Aminohexafluoropropan-2-ol], the POD vs vehicle is above 100 µM.

The record behind these values is the supplement of paper PMC11368000.
